Experimental data reported in ChEMBL document CHEMBL5230155, “Recent contributions of quinolines to antimalarial and anticancer drug discovery research” (Eur J Med Chem, 2021).
In brackets after ≈: the same amount, converted by molar mass.

Legend:
Plasmodium falciparum [1] = assay: microbe, parasite or virus in culture; settings: NF54
Description: Antimalarial activity against CQ-sensitive Plasmodium falciparum NF54

Plasmodium falciparum [2] = assay: Antimalarial activity against CQ-resistant Plasmodium falciparum W2; assay type: functional, organism-based
Plasmodium falciparum [3] = assay: Antimalarial activity against CQ-sensitive Plasmodium falciparum D6; assay type: functional, organism-based
HeLa = assay: Antiproliferative activity against human HeLa cells; assay type: functional, cell-based
HepG2 = assay: Cytotoxicity against human HepG2 cells; assay type: functional, cell-based; settings: Homo sapiens, HepG2
HCT-116 = assay: Cytotoxicity against human HCT-116 cells; assay type: functional, cell-based
[4] = biological target: Hepatocyte growth factor receptor (Homo sapiens, UniProt P08581); assay: Inhibition of c-Met (unknown origin)
[5] = biological target: Cathepsin B (Homo sapiens) (UniProt P07858); assay: Inhibition of human cathepsin B exopeptidase activity at 50 uM relative to control
Plasmodium falciparum [6] = assay: Antimalarial activity against CQ-sensitive Plasmodium falciparum 3D7; assay type: functional, organism-based
Plasmodium falciparum [7] = assay: Antimalarial activity against CQ-resistant Plasmodium falciparum K1; assay type: functional, organism-based
Plasmodium falciparum [8] = assay: microbe, parasite or virus in culture
Description: Antimalarial activity against Plasmodium falciparum

MCF7 = assay: Antiproliferative activity against human MCF7 cells; assay type: functional, cell-based; settings: Homo sapiens, MCF7

Hepatocyte growth factor receptor, sequence (P08581 whole entry): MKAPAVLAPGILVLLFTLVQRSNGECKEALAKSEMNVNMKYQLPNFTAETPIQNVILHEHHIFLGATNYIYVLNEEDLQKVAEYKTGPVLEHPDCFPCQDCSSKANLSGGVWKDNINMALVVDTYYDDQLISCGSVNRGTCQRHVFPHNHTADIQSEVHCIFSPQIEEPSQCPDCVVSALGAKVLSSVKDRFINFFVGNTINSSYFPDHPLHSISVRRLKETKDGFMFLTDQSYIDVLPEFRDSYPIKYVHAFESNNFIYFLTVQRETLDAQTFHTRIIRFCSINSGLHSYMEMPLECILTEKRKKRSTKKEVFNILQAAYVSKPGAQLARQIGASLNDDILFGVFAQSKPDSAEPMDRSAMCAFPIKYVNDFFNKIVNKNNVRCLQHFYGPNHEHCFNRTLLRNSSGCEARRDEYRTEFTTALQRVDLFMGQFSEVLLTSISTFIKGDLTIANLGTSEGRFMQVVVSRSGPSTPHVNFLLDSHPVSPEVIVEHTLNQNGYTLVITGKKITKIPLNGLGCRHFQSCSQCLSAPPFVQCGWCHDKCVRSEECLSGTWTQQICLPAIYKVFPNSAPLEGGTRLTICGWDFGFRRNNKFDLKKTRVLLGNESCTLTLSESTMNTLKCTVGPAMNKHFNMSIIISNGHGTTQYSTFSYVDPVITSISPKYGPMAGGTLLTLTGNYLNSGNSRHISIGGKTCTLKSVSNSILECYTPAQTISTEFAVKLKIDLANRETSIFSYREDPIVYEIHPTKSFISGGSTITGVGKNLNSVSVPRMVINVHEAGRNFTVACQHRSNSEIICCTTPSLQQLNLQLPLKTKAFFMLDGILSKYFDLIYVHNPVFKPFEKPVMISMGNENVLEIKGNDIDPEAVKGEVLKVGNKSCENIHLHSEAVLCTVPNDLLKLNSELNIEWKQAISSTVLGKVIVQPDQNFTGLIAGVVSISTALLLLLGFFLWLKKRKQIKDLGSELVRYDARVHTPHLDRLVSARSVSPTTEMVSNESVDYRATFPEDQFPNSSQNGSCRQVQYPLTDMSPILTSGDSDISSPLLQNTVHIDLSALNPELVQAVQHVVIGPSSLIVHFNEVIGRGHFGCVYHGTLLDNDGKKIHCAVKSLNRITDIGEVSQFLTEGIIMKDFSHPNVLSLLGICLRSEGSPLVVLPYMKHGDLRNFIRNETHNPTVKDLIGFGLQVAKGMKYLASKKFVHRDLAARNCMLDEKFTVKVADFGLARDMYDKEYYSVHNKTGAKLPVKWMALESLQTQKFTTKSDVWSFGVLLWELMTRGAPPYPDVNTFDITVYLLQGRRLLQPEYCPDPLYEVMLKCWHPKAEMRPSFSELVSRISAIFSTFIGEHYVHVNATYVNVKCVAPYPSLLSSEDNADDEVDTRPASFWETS

COc1ccc(C2CN3CCC2CC3[C@H](O)c2ccnc3ccc(OC)cc23)cc1 (mixture of isomers)
IC50 (Plasmodium falciparum [1]): 5 nM

CCCCCCCOc1c(OC)cc(NC(C)CCCN)c2nc(C(C)(C)C)ccc12 (stereo not drawn)
IC50 (Plasmodium falciparum [2]): 0.022 µg/mL | IC50 (Plasmodium falciparum [3]): 0.02 µg/mL

N#CN=C(NCCCCCCOc1ccc(Cl)cc1)Nc1ccncc1 [CHS-828]
IC50 (HeLa): 40 nM

CN(C)C/C=C/C(=O)Nc1cc2c(Nc3ccc(F)c(Cl)c3)ncnc2cc1O[C@H]1CCOC1 [AFATINIB]
IC50 (HepG2): 5.3 µg/mL | IC50 (HCT-116): 5.3 µg/mL (≈ 10.9 µM)

COc1cc2nccc(Oc3ccc(NC(=O)C4(C(=O)Nc5ccc(F)cc5)CC4)cc3)c2cc1OC(=O)c1ccc([N+](=O)[O-])cc1
IC50 [4]: 19 nM

COCCCNC(=O)c1cc([N+](=O)[O-])c2cccnc2c1O
inhibition [5]: 19.4%

Cc1ccc2nc(/C=C/c3ccc(N(C)C)cc3)cc(C(=O)O)c2c1
IC50 (HepG2): 7.7 µg/mL | IC50 (HCT-116): 7.7 µg/mL (≈ 23.2 µM)

CC(C)c1ccc(-c2cncn2CCNc2ccnc3cc(Cl)ccc23)cc1
IC50 (Plasmodium falciparum [6]): 79 nM | IC50 (Plasmodium falciparum [7]): 290 nM

COc1ccccc1NC(=S)NNC(=O)c1cc(-c2ccccc2Cl)nc2ccccc12
IC50 (Plasmodium falciparum [8]): < 0.3 µg/mL

Cc1ccc2nc(-c3cn(-c4ccc(Cl)cc4)nc3-c3ccccc3)cc(C(=O)NCCCN(C)C)c2c1
IC50 (Plasmodium falciparum [8]): 0.0879 µg/mL (≈ 0.168 µM)

O=C(NNC(=S)Nc1cc(Cl)cc(Cl)c1)c1cc(-c2ccc(F)cc2F)nc2cc(Cl)c(F)cc12
IC50 (Plasmodium falciparum [8]): 0.1 µg/mL (≈ 0.18 µM)

OCc1cc(-c2cn(-c3ccc(Cl)cc3Cl)nc2-c2ccccc2)nc2ccccc12
IC50 (Plasmodium falciparum [8]): 0.036 µg/mL (≈ 0.0807 µM)

O=C1c2cccc(N3CCOCC3)c2C(=O)N1CCCCCCNc1ccnc2cc(Cl)ccc12
IC50 (Plasmodium falciparum [2]): 6 nM

CC(C)(C)c1cncn1CCNc1ccnc2cc(Cl)ccc12
IC50 (Plasmodium falciparum [6]): 79 nM | IC50 (Plasmodium falciparum [7]): 290 nM

CCCCCOc1c(OC)cc(NC(C)CCCN)c2nc(C(C)(C)C)ccc12 (stereo not drawn)
IC50 (Plasmodium falciparum [2]): 0.022 µg/mL | IC50 (Plasmodium falciparum [3]): 0.02 µg/mL

Cc1c(Cl)ccc2cc(/C=C/C(=O)c3cccc(Br)c3)c(Cl)nc12
IC50 (Plasmodium falciparum [2]): < 50 nM | IC50 (Plasmodium falciparum [3]): < 50 nM

CCCCCCCCOc1c(OC)cc(NC(C)CCCN)c2nc(C(C)(C)C)ccc12 (stereo not drawn)
IC50 (Plasmodium falciparum [2]): 0.022 µg/mL | IC50 (Plasmodium falciparum [3]): 0.02 µg/mL

COc1ccc(Nc2ccnc3cc(-c4ccc(S(=O)(=O)N5CCN(C)CC5)cc4)ccc23)cc1Cl
EC50 (Plasmodium falciparum [3]): 12 nM

COc1cc2nccc(Oc3ccc(NC(=O)C4(C(=O)Nc5c(F)cc(F)cc5F)CC4)cc3)c2cc1Oc1ccc(N)cn1
IC50 [4]: 19 nM

CCCCNC(=O)c1cc([N+](=O)[O-])c2cccnc2c1O
inhibition [5]: 19.4%

Cc1cc(S(=O)(=O)c2ccc(C#N)cc2)c2ccccc2n1
IC50 (MCF7): 1380 nM

CN(C)CCNCc1ccc(-c2cc(-c3ccc(CNCCN(C)C)cc3)c3ccccc3n2)cc1
IC50 (Plasmodium falciparum [6]): 32 nM | IC50 (Plasmodium falciparum [2]): 340 nM | IC50 (HepG2): 3100 nM

O=C(NCc1ccccc1)c1cc([N+](=O)[O-])c2cccnc2c1O
inhibition [5]: 19.4%

O=C(NNC(=S)Nc1ccc([N+](=O)[O-])cc1)c1cc(-c2ccccc2Cl)nc2ccccc12
IC50 (Plasmodium falciparum [8]): < 0.3 µg/mL

Cc1c(Cl)ccc2cc(/C=C/C(=O)c3ccc(Cl)cc3)c(Cl)nc12
IC50 (Plasmodium falciparum [2]): < 50 nM | IC50 (Plasmodium falciparum [3]): < 50 nM

Cc1cc(S(=O)(=O)c2ccccc2[N+](=O)[O-])c2ccccc2n1
IC50 (MCF7): 1380 nM

O=C(NCCO)c1cc([N+](=O)[O-])c2cccnc2c1O
inhibition [5]: 19.4%

O=C1c2ccc(N3CCN(CCO)CC3)cc2C(=O)N1CCCCCCNc1ccnc2cc(Cl)ccc12
IC50 (Plasmodium falciparum [2]): 6 nM

CCN(CC)c1ccc2c(c1)C(=O)N(CCC(=O)NCCNc1ccnc3cc(Cl)ccc13)C2=O
IC50 (Plasmodium falciparum [2]): 97 nM

O=C(O)c1cc(-c2ccccc2)nc2ccc(Cl)cc12
IC50 (Plasmodium falciparum [8]): 0.12 µg/mL (≈ 0.423 µM)

Cc1c(Cl)ccc2cc(/C=C/C(=O)c3csc(Cl)c3)c(Cl)nc12
IC50 (Plasmodium falciparum [2]): < 50 nM | IC50 (Plasmodium falciparum [3]): < 50 nM

O=C1c2ccc(N3CCN(CCO)CC3)cc2C(=O)N1CCCNc1ccnc2cc(Cl)ccc12
IC50 (Plasmodium falciparum [2]): 6 nM

Cc1ccc(NC(=S)NNC(=O)c2c(C)nc3ccccc3c2C)cc1
IC50 (Plasmodium falciparum [8]): 0.02 µg/mL (≈ 0.0549 µM)

COc1ccc2nccc([C@@H](O)C3CC4CCN3CC4c3ccc(C(F)(F)F)cc3)c2c1 (mixture of isomers)
IC50 (Plasmodium falciparum [1]): 5 nM

O=C1c2ccc(N3CCOCC3)cc2C(=O)N1CCCCCCNc1ccnc2cc(Cl)ccc12
IC50 (Plasmodium falciparum [2]): 6 nM

O=C(NC1CCCCC1)c1cc([N+](=O)[O-])c2cccnc2c1O
inhibition [5]: 19.4%

COc1cccc(NC(=S)NNC(=O)c2cc(-c3ccc(C(F)(F)F)cc3)nc3ccc(F)cc23)c1
IC50 (Plasmodium falciparum [8]): 0.1 µg/mL (≈ 0.194 µM)

O=C(N/N=C/c1cc(O)ccc1O)c1ccc(Nc2ccnc3ccccc23)cc1
IC50 (HepG2): 27300 nM

CCOC(=O)C(C#N)C(=O)c1cc(/C=C/c2ccc(N(C)C)cc2)nc2ccc(Br)cc12 (stereo not drawn)
IC50 (HepG2): 7.7 µg/mL | IC50 (HCT-116): 7.7 µg/mL (≈ 15.6 µM)

COc1cc2nccc(Oc3ccc(NC(=O)C4(C(=O)Nc5ccc(F)cc5)CC4)cc3)c2cc1O
IC50 [4]: 19 nM

CC1(C)CC(NCc2cc3cccc(Cl)c3nc2N2CCCC2)CCO1 (stereo not drawn)
IC50 (Plasmodium falciparum [1]): 24 nM

O=C(/C=C/C(=O)Nc1cccc(F)c1)NCCCCNc1cc(C(F)(F)F)nc2c(C(F)(F)F)cccc12
IC50 (Plasmodium falciparum [6]): 2900 nM

Cc1nc2ccccc2c(C)c1C(=O)NNC(=S)Nc1ccccc1
IC50 (Plasmodium falciparum [8]): 0.02 µg/mL (≈ 0.0571 µM)

FC(F)(F)c1ccc(-c2cncn2CCNc2ccnc3cc(Cl)ccc23)cc1
IC50 (Plasmodium falciparum [6]): 79 nM | IC50 (Plasmodium falciparum [7]): 290 nM

C=C[C@@H]1CN2CC[C@@H]1C[C@@H]2[C@@H](O)c1ccnc2ccc(OC)cc12
IC50 (Plasmodium falciparum [1]): 122 nM

Cc1cccc2cc(CNC3CCOC(C)(C)C3)c(N3CCCC3)nc12 (stereo not drawn)
IC50 (Plasmodium falciparum [7]): 173 nM | IC50 (Plasmodium falciparum [1]): 22 nM

C=C[C@H]1CN2CC[C@H]1C[C@H]2[C@H](O)c1ccnc2ccc(OC)cc12 [QUININE]
IC50 (Plasmodium falciparum [1]): 22 nM | IC50 (Plasmodium falciparum [8]): 0.26 µg/mL (≈ 0.801 µM)

Cc1c(Cl)ccc2cc(/C=C/C(=O)c3ccc(Br)s3)c(Cl)nc12
IC50 (Plasmodium falciparum [2]): < 50 nM | IC50 (Plasmodium falciparum [3]): < 50 nM

CN(C)c1ccc(/C=C/c2cc(C(=O)O)c3cc(Br)ccc3n2)cc1
IC50 (HepG2): 7.7 µg/mL | IC50 (HCT-116): 7.7 µg/mL (≈ 19.4 µM)

O=C(NCc1ccc(F)cc1)c1cc([N+](=O)[O-])c2cccnc2c1O
inhibition [5]: 19.4%

C#Cc1ccc(-c2cn(CCNc3ccnc4cc(Cl)ccc34)nn2)cc1F
IC50 (Plasmodium falciparum [7]): 160 nM | IC50 (Plasmodium falciparum [1]): 140 nM

CCCCCCOc1c(OC)cc(NC(C)CCCN)c2nc(C(C)(C)C)ccc12 (stereo not drawn)
IC50 (Plasmodium falciparum [2]): 0.022 µg/mL | IC50 (Plasmodium falciparum [3]): 0.02 µg/mL

O=C(NNC(=S)Nc1ccccc1)c1cc(-c2c(F)cccc2F)nc2ccc(C(F)(F)F)cc12
IC50 (Plasmodium falciparum [8]): 0.1 µg/mL (≈ 0.199 µM)

N=C(N=C(N)N)SCCCCNc1ccnc2cc(Cl)ccc12
IC50 (Plasmodium falciparum [2]): 430 nM | IC50 (Plasmodium falciparum [3]): 610 nM

O=C(NNC(=S)NC1CCCCC1)c1cc(-c2ccccc2Cl)nc2ccccc12
IC50 (Plasmodium falciparum [8]): < 0.3 µg/mL

Cc1ccsc1-c1cncn1CCNc1ccnc2cc(Cl)ccc12
IC50 (Plasmodium falciparum [6]): 79 nM | IC50 (Plasmodium falciparum [7]): 290 nM

Cc1ccc(S(=O)(=O)Oc2ccc(Cl)c3cccnc23)cc1
IC50 (MCF7): 1380 nM

CC(C)NC(=S)NNC(=O)c1cc(-c2ccccc2Cl)nc2ccccc12
IC50 (Plasmodium falciparum [8]): < 0.3 µg/mL

OCc1cc(-c2cn(-c3ccc(Cl)cc3)nc2-c2ccccc2)nc2ccccc12
IC50 (Plasmodium falciparum [8]): 0.092 µg/mL (≈ 0.223 µM)

Cn1cc(-c2ccc3nnc(C(F)(F)c4ccc5ncccc5c4)n3n2)cn1 [JNJ-38877605]
IC50 [4]: 1.7 nM

C#Cc1ccc(-c2cn(CCNc3ccnc4cc(Cl)ccc34)nn2)cc1
IC50 (Plasmodium falciparum [7]): 160 nM | IC50 (Plasmodium falciparum [1]): 140 nM

O=C(NNC(=S)Nc1ccc([N+](=O)[O-])cc1)c1cc(-c2ccc(F)cc2F)nc2ccc(F)cc12
IC50 (Plasmodium falciparum [8]): 0.1 µg/mL (≈ 0.201 µM)

Cc1c(Cl)ccc2cc(/C=C/C(=O)c3ccccc3Br)c(Cl)nc12
IC50 (Plasmodium falciparum [2]): < 50 nM | IC50 (Plasmodium falciparum [3]): < 50 nM

O=C(NNC(=S)Nc1cccc(Cl)c1)c1cc(-c2ccccc2Cl)nc2ccccc12
IC50 (Plasmodium falciparum [8]): < 0.3 µg/mL

O=C(NNC(=S)Nc1c(F)cccc1F)c1cc(-c2ccccc2Br)nc2c(Cl)cc(C(F)(F)F)cc12
IC50 (Plasmodium falciparum [8]): 0.1 µg/mL (≈ 0.162 µM)

CN(C)c1ccc(/C=C/c2cc(-c3nnc(N)s3)c3cc(Br)ccc3n2)cc1
IC50 (HepG2): 7.7 µg/mL | IC50 (HCT-116): 7.7 µg/mL (≈ 17 µM)

O=C1c2ccc(N3CCN(CCO)CC3)cc2C(=O)N1CCCCNc1ccnc2cc(Cl)ccc12
IC50 (Plasmodium falciparum [2]): 6 nM

[2H]c1ccc2cc(C(F)(F)c3nnc4ccc(-c5cnn(C)c5)nn34)ccc2n1
IC50 [4]: 2.6 nM

CC(C)NC(=O)c1cc([N+](=O)[O-])c2cccnc2c1O
inhibition [5]: 19.4%

Clc1ccc2c(NCCn3cncc3C3CCCC3)ccnc2c1
IC50 (Plasmodium falciparum [6]): 79 nM | IC50 (Plasmodium falciparum [7]): 290 nM

COc1ccc2nc(-c3ccccc3)cc(C(=O)O)c2c1
IC50 (Plasmodium falciparum [8]): 0.12 µg/mL (≈ 0.43 µM)

C#Cc1ccc(-c2cn(CCNc3ccnc4cc(Cl)ccc34)nn2)c(F)c1
IC50 (Plasmodium falciparum [7]): 160 nM | IC50 (Plasmodium falciparum [1]): 140 nM

O=C(NNC(=S)Nc1ccc(Cl)cc1Cl)c1cc(-c2ccccc2Cl)nc2ccccc12
IC50 (Plasmodium falciparum [8]): < 0.3 µg/mL

Cc1cc(C)c(S(=O)(=O)Oc2ccc(Cl)c3cccnc23)c(C)c1
IC50 (MCF7): 1380 nM

OCCNCCNc1ccnc2cc(Cl)ccc12
IC50 (Plasmodium falciparum [6]): 18.9 nM | IC50 (Plasmodium falciparum [2]): 305 nM
